Data: PubChem BioAssay (NCI)
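The compound was tested at five concentrations on cells cultured in 96-well plates, with a 48-hour exposure period. GI50 is the concentration that inhibits growth by half. Definition used: TGI = concentration required for complete inhibition of growth.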

Tests used:
Experiment in all cases: DTP human tumour cell line panel, 48 h
HL-60(TB) leukemia = tested on: HL-60(TB) leukemia
RPMI-8226 leukemia = tested on: RPMI-8226 leukemia
HCC-2998 colon = tested on: HCC-2998 colon
CCRF-CEM leukemia = tested on: CCRF-CEM leukemia
SW-620 colon = tested on: SW-620 colon
SNB-75 CNS = tested on: SNB-75 CNS
A498 renal = tested on: A498 renal
PC-3 prostate = tested on: PC-3 prostate
UO-31 renal = tested on: UO-31 renal
MDA-MB-231 breast = tested on: MDA-MB-231 breast

## Cc1cc2c(C(C)C)c(O)c(O)c(/C=N/O)c2c(O)c1-c1c(C)cc2c(C(C)C)c(O)c(O)c(/C=N/O)c2c1O
HL-60(TB) leukemia
  GI50: 2.61 µM
  TGI: 10.6 µM
RPMI-8226 leukemia
  GI50: 2.44 µM
  TGI: 15.4 µM
HCC-2998 colon
  GI50: 2.29 µM
  TGI: 6.88 µM
CCRF-CEM leukemia
  GI50: 3.6 µM
  TGI: 14.7 µM
SW-620 colon
  GI50: 2.94 µM
  TGI: 12.3 µM
SNB-75 CNS
  GI50: 3.57 µM
  TGI: 17.4 µM
A498 renal
  GI50: 2.54 µM
  TGI: 10.4 µM
PC-3 prostate
  GI50: 2.8 µM
  TGI: 13.5 µM
UO-31 renal
  GI50: 2.24 µM
  TGI: 12.6 µM
MDA-MB-231 breast
  GI50: 3.5 µM
  TGI: 20.2 µM

## O=C(NNC1=NS(=O)(=O)c2ccccc2N1c1ccccc1)c1cnccn1
HL-60(TB) leukemia
  GI50: > 100 µM
  TGI: > 100 µM
RPMI-8226 leukemia
  GI50: > 100 µM
  TGI: > 100 µM
HCC-2998 colon
  GI50: > 100 µM
  TGI: > 100 µM
CCRF-CEM leukemia
  GI50: > 100 µM
  TGI: > 100 µM
SW-620 colon
  GI50: > 100 µM
  TGI: > 100 µM
SNB-75 CNS
  GI50: > 100 µM
  TGI: > 100 µM
A498 renal
  GI50: > 100 µM
  TGI: > 100 µM
PC-3 prostate
  GI50: > 100 µM
  TGI: > 100 µM
UO-31 renal
  GI50: 67.4 µM
  TGI: > 100 µM
MDA-MB-231 breast
  GI50: > 100 µM
  TGI: > 100 µM

## COc1ccc(-c2cc(-c3ccc(Cl)cc3)nc(SCCCC(=O)NO)n2)cc1OC
HL-60(TB) leukemia
  GI50: 2.48 µM
  TGI: 8.56 µM
RPMI-8226 leukemia
  GI50: 0.946 µM
  TGI: 7.44 µM
HCC-2998 colon
  GI50: 1.5 µM
  TGI: 3.05 µM
CCRF-CEM leukemia
  GI50: 0.488 µM
  TGI: 33.4 µM
SW-620 colon
  GI50: 0.578 µM
  TGI: 2.76 µM
SNB-75 CNS
  GI50: 1.49 µM
  TGI: 6.31 µM
A498 renal
  GI50: 1.22 µM
  TGI: 2.8 µM
PC-3 prostate
  GI50: 0.944 µM
  TGI: 3.03 µM
UO-31 renal
  GI50: 0.277 µM
  TGI: 1.09 µM
MDA-MB-231 breast
  GI50: 0.788 µM
  TGI: 4.29 µM

## CCN(CC)CCOc1ccc(/C(=C(\C)Cc2ccc(OC)cc2)c2ccc(O)cc2)cc1
HL-60(TB) leukemia
  GI50: 1.41 µM
  TGI: 3.14 µM
RPMI-8226 leukemia
  GI50: 1.79 µM
  TGI: 3.88 µM
HCC-2998 colon
  GI50: 1.91 µM
  TGI: 3.46 µM
CCRF-CEM leukemia
  GI50: 2.19 µM
  TGI: 5.1 µM
SW-620 colon
  GI50: 1.7 µM
  TGI: 3.37 µM
SNB-75 CNS
  GI50: 1.58 µM
  TGI: 3.38 µM
A498 renal
  GI50: 1.38 µM
  TGI: 4.81 µM
PC-3 prostate
  GI50: 1.54 µM
  TGI: 3.26 µM
UO-31 renal
  GI50: 1.45 µM
  TGI: 2.8 µM
MDA-MB-231 breast
  GI50: 1.71 µM
  TGI: 3.26 µM

## CCOC(=O)C(Cc1ccccc1)n1c(O)c(/C=N/c2ncc(Cc3ccc(Cl)cc3Cl)s2)sc1=S (centres undefined)
HL-60(TB) leukemia
  GI50: 2.29 µM
  TGI: 7.06 µM
RPMI-8226 leukemia
  GI50: 2.12 µM
  TGI: > 100 µM
HCC-2998 colon
  GI50: 2.54 µM
  TGI: 42.3 µM
CCRF-CEM leukemia
  GI50: 1.87 µM
  TGI: > 100 µM
SW-620 colon
  GI50: 3.45 µM
  TGI: > 100 µM
SNB-75 CNS
  GI50: 2.81 µM
  TGI: 21.4 µM
A498 renal
  GI50: 1.58 µM
  TGI: 7.64 µM
PC-3 prostate
  GI50: 2.08 µM
  TGI: > 100 µM
UO-31 renal
  GI50: 1.97 µM
  TGI: 5.31 µM
MDA-MB-231 breast
  GI50: 3.88 µM
  TGI: 21.4 µM

## CC1(C)CCC2(C(=O)O)C(O)CC3(C)C(=CCC4C5(C)CCC(OC6OCC(O)C(O)C6OC6OCC(O)C(O)C6OC6OCC(O)C(OC7OC(CO)C(O)C(O)C7O)C6O)C(C)(C)C5CCC43C)C2C1 (centres undefined)
HL-60(TB) leukemia
  TGI: 48.3 µM
HCC-2998 colon
  TGI: > 100 µM
CCRF-CEM leukemia
  TGI: 71.9 µM
SW-620 colon
  TGI: > 100 µM
SNB-75 CNS
  TGI: 40.1 µM
A498 renal
  TGI: 59 µM
PC-3 prostate
  TGI: > 100 µM
UO-31 renal
  TGI: 35.3 µM
MDA-MB-231 breast
  TGI: > 100 µM

## Cn1cc(Nc2nccc(-c3ccc4c(c3)CN(C3COC3)CC[C@H]4NC(=O)c3cn(C(C)(C)C)nn3)n2)cn1
HL-60(TB) leukemia
  GI50: > 100 µM
  TGI: > 100 µM
RPMI-8226 leukemia
  GI50: > 100 µM
  TGI: > 100 µM
HCC-2998 colon
  GI50: > 100 µM
  TGI: > 100 µM
CCRF-CEM leukemia
  GI50: > 100 µM
  TGI: > 100 µM
SW-620 colon
  GI50: > 100 µM
  TGI: > 100 µM
SNB-75 CNS
  GI50: 24.4 µM
  TGI: > 100 µM
A498 renal
  GI50: 76.5 µM
  TGI: > 100 µM
PC-3 prostate
  GI50: > 100 µM
  TGI: > 100 µM
UO-31 renal
  GI50: 53.1 µM
  TGI: > 100 µM
MDA-MB-231 breast
  GI50: 77.3 µM
  TGI: > 100 µM

## C/C=C(/C)C(=O)OC1C=C(CO)C(=O)C(OC(=O)C2(C)OC2C)C1C(C)C (centres undefined)
HL-60(TB) leukemia
  GI50: 1.16 µM
  TGI: 6.45 µM
RPMI-8226 leukemia
  GI50: 1.5 µM
  TGI: 5.17 µM
HCC-2998 colon
  GI50: 1.74 µM
  TGI: 3.22 µM
CCRF-CEM leukemia
  GI50: 0.653 µM
  TGI: 5.25 µM
SW-620 colon
  GI50: 1.98 µM
  TGI: 4.16 µM
A498 renal
  GI50: 1.74 µM
  TGI: 3.9 µM
PC-3 prostate
  GI50: 1.75 µM
  TGI: 4.5 µM
UO-31 renal
  GI50: 1.61 µM
  TGI: 2.96 µM
MDA-MB-231 breast
  GI50: 1.72 µM
  TGI: 3.79 µM

## C=C1CC[C@@](C)(c2cc(Br)c(C)cc2OC(C)=O)[C@H]1C
HL-60(TB) leukemia
  GI50: 11.9 µM
  TGI: 28.2 µM
RPMI-8226 leukemia
  GI50: 9.55 µM
  TGI: 24.9 µM
CCRF-CEM leukemia
  GI50: 8.88 µM
  TGI: 26.6 µM
SW-620 colon
  GI50: 11.8 µM
  TGI: 24.6 µM
A498 renal
  GI50: 16.8 µM
  TGI: 31.6 µM
PC-3 prostate
  GI50: 11.1 µM
  TGI: 24.2 µM
UO-31 renal
  GI50: 13.1 µM
  TGI: 30.5 µM
MDA-MB-231 breast
  GI50: 12.5 µM
  TGI: 25.9 µM

## Oc1ccc(/C=N/NC(=S)Nc2ccccc2)nc1
HL-60(TB) leukemia
  GI50: 1.55 µM
  TGI: 6.77 µM
RPMI-8226 leukemia
  GI50: 3.44 µM
  TGI: > 100 µM
HCC-2998 colon
  GI50: 4.09 µM
  TGI: > 100 µM
CCRF-CEM leukemia
  GI50: 0.938 µM
  TGI: > 100 µM
SW-620 colon
  GI50: 2.07 µM
  TGI: > 100 µM
A498 renal
  GI50: 3 µM
  TGI: > 100 µM
PC-3 prostate
  GI50: 0.706 µM
  TGI: > 100 µM
UO-31 renal
  GI50: 0.661 µM
  TGI: 16.8 µM
MDA-MB-231 breast
  GI50: 0.729 µM
  TGI: > 100 µM

## COC(=O)C1C(=O)C(C(=O)OC)C2CCC1N2C (centres undefined)
HL-60(TB) leukemia
  TGI: > 65.8 µM
RPMI-8226 leukemia
  TGI: > 100 µM
HCC-2998 colon
  TGI: > 100 µM
CCRF-CEM leukemia
  TGI: > 78.1 µM
SW-620 colon
  TGI: > 100 µM
SNB-75 CNS
  TGI: > 100 µM
A498 renal
  TGI: > 100 µM
PC-3 prostate
  TGI: > 100 µM
UO-31 renal
  TGI: > 100 µM
MDA-MB-231 breast
  TGI: > 100 µM

## CN1CCC(=C(c2ccc(Cl)cc2)c2ccccn2)CC1
HL-60(TB) leukemia
  GI50: 58.9 µM
  TGI: > 100 µM
RPMI-8226 leukemia
  GI50: > 100 µM
  TGI: > 100 µM
HCC-2998 colon
  GI50: > 100 µM
  TGI: > 100 µM
CCRF-CEM leukemia
  GI50: 4.37 µM
  TGI: > 100 µM
SW-620 colon
  GI50: > 100 µM
  TGI: > 100 µM
SNB-75 CNS
  GI50: 31 µM
  TGI: > 100 µM
A498 renal
  GI50: 45.8 µM
  TGI: > 100 µM
PC-3 prostate
  GI50: 80.5 µM
  TGI: > 100 µM
UO-31 renal
  GI50: 18.5 µM
  TGI: > 100 µM
MDA-MB-231 breast
  GI50: 34.5 µM
  TGI: > 100 µM

## CCN(CC)Cc1cc(Nc2ccnc3ccc(OC)cc23)ccc1O
HL-60(TB) leukemia
  GI50: 1.94 µM
  TGI: 8.83 µM
RPMI-8226 leukemia
  GI50: 3.97 µM
  TGI: 15.1 µM
HCC-2998 colon
  GI50: 2.35 µM
  TGI: 7.1 µM
SW-620 colon
  GI50: 3.6 µM
  TGI: 19.7 µM
SNB-75 CNS
  GI50: 4.88 µM
  TGI: 18.8 µM
A498 renal
  GI50: 2.75 µM
  TGI: 12.5 µM
PC-3 prostate
  GI50: 4.49 µM
  TGI: 31.6 µM
UO-31 renal
  GI50: 1.84 µM
  TGI: 5.96 µM
MDA-MB-231 breast
  GI50: 4.76 µM
  TGI: 31.2 µM
